Reference: patent US20140255402A1 (priority 2013, published 2014)

Tested on: NALM/6 cells
Design: species or system mice
Conditions: mouse, in vivo

**Q.** Which “Survival difference as compared to placebo” value does the source give for `Nc1ccn([C@@H]2O[C@H](CO)[C@@H](O)[C@@H]2O)c(=O)n1` [Ara-C, Cytarabine] here?
**A.** Its value is “no significant survival difference”.
